Data on two compounds can be found in patent US20230211362A1, “A METHOD OF COATING AN OCULAR PROSTHETIC DEVICE AND OTHER PROSTHETICS” (UEA Enterprises Limited, priority 2020, published 2023).

Molecules are shown by their SMILES. Counter-ions that a name gives are not always drawn.

As usually defined, the Log P is the decadic logarithm of the partition coefficient of the neutral form, usually between octanol and water.

The conditions of series [1]: cited from earlier work.
Series [2] is described as follows: In vitro drug release tests of nanoelectrosprayed contact lenses in PBS 7.4 under sink conditions, HPLC (Example 4). The following applies: zein film on contact lens (BIM1); 2 ml PBS 7.4, 35° C., 125 rpm; FIG. 32 bottom. In kind it is physicochemical. How it is done: Glass vials containing 2 ml PBS 7.4 was incubated in a shaking incubator set at 35° C. with 125 rpm for 2 hours before in vitro experiments. All in vitro experiments were performed under sink conditions (i.e., the drug concentration within the in vitro dissolution medium was more than 10 times diluted in comparison to the saturated solubility of the drug in the medium). The nanoelectrosprayed lenses were placed into the vial and an aliquot of 1.5 ml was replaced with fresh PBS at regular intervals up to 24 hours (for KF the intervals were 0.5, 1, 3, 6, and 24 hours; for BIM the intervals were 0.25, 0.5, 0.75, 1, 2, 3, 4, 5, 6, and 24 hours). […] The total amount of ketotifen and bimatoprost sprayed on a contact lens was determined by the sum of the cumulative amount of the drug released during the in vitro study and the amount obtained from extraction.
The high-performance liquid chromatography system (Jasco, Japan) consists of a pump (PU-1580), an autosampler (AS-2055 Plus) and a 4-channel UV detector (UV-1570M). A Waters C18 column (250×4.6 mm i.d.; 5 μm particle size) was used under ambient conditions. The mobile phase of ketotifen fumarate and bimatoprost was prepared according to a method adopted from the literature. The mobile phase for ketotifen comprised methanol and 0.2% triethylamine (v/v) (80:20), running with 1 ml/min flow rate. […]

In the case of `CN1CCC(=C2c3ccccc3CC(=O)c3sccc32)CC1` [Ketotifen fumarate], in series [1], the “Log P” value was 3.4 and the “pKa (acid)” value is 12.3. In series [1] (slightly soluble in aqueous solutions), the “solubility in aqueous solutions” value is 7.87 µg/mL.
With `CCNC(=O)CCC/C=C\C[C@@H]1[C@@H](/C=C/[C@@H](O)CCc2ccccc2)[C@H](O)C[C@@H]1O` [bimatoprost], in series [2], the “bimatoprost release after 6 hours” value is reported as 98% and the “bimatoprost released in the first 30 minutes” value is 51%.
